According to patent publication US11999676B2, “Vesicular monoamine transporter-2 ligands and their use in the treatment of psychostimulant abuse” (priority 2016, dated 2024):
Like-named read-outs stand apart in the source and are kept apart here.

Tests used:
VMAT2 [1] = target: T1, VMAT2 (Rattus norvegicus (Rat), UniProt Q01827); conditions: rat brain synaptic vesicles; read-out: [3H]DTBZ binding (Ki) VMAT2
VMAT2 [2] = target: T1, VMAT2; experiment: [3H]Dopamine ([3H]DA) uptake assay, vesicular preparation; type: biochemical
hERG channel = hERG channel (Homo sapiens (Human), UniProt Q12809); experiment: [3H]Dofetilide binding assay, HEK-293 cell membrane preparation; conditions: [3H]dofetilide, HEK-293 cell membranes; read-out: hERG Binding: Mean Ki ± Standard Deviation
Method: [^3H]Dofetilide binding assays were conducted using commercially available HEK-293 cell membranes which stably express the hERG channel. Membranes were suspended in assay buffer (50 mM Tris, 10 mM KCl, 1 mM MgCl2, pH 7.4) prior to the experiment. […] Aliquots of the HEK-293 cell membrane suspension which contained 5 μg membrane protein were added to tubes containing assay buffer, 5 nM [^3H]dofetilide and a range of concentrations of analog (10 nM-100 μM). Nonspecific binding was determined in the presence of amitriptyline (1 mM). Samples were incubated for 1 hr. at 24° C., followed by rapid filtration. […] The affinity for the [^3H]dofetilide binding site on the hERG channel expressed in the HEK-293 cellular membrane was determined from the analog concentration response curves.

[3] = Microsomal stability assay, human liver microsomes; conditions: for CLint scaled at 0.08 µM / half-life at 0.08 µM: both, human, pooled liver microsomes; for CLint scaled at 0.08 µM: pH 7.4, Microsomal stability assays: Clearance; for half-life at 0.08 µM: pH 7.4, Microsomal stability assays: Half-life
[4] = Microsomal stability assay, rat liver microsomes; conditions: for CLint scaled at 0.08 µM / half-life at 0.08 µM: female, Sprague-Dawley, rat, liver microsomes; for CLint scaled at 0.08 µM: pH 7.4, Microsomal stability assays: Clearance; for half-life at 0.08 µM: pH 7.4, Microsomal stability assays: Half-life
[5] = rat striatal synaptic vesicles, read-out: [3H]DA uptake (Ki) VMAT2
[6] = [3H]DA uptake, rat, read-out: VMAT2 (rat) Inhibition: Mean Ki ± Standard Deviation

hERG channel, sequence (Q12809 whole entry): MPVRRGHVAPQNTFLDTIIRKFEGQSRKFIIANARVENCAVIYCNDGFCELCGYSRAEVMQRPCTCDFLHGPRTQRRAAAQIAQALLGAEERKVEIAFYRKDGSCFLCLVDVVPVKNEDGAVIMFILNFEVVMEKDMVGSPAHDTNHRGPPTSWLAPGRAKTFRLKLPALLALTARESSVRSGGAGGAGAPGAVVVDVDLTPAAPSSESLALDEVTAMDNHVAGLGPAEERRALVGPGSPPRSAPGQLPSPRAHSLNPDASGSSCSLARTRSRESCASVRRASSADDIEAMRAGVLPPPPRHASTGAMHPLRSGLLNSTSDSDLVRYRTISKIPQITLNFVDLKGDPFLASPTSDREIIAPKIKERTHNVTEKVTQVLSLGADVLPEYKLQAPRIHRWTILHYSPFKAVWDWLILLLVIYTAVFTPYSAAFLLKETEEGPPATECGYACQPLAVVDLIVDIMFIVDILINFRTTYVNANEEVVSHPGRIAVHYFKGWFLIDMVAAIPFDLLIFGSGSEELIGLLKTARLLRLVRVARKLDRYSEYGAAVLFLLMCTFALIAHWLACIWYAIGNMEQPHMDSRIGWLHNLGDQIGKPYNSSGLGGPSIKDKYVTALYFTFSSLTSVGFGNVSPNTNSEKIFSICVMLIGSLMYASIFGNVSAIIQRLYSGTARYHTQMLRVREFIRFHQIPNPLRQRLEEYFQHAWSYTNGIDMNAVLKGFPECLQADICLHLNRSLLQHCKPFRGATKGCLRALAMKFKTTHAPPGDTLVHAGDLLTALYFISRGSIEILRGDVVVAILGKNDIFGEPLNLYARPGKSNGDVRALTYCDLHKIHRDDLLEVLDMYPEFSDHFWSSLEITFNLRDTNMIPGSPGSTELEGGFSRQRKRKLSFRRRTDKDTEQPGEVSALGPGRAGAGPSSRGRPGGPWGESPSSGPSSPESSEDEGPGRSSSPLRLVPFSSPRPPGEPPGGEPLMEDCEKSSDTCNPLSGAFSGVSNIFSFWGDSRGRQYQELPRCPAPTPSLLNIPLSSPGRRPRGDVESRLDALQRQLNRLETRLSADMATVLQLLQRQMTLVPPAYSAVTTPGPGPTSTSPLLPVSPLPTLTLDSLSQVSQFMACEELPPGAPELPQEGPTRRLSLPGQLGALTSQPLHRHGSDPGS

Structure (SMILES) | Ki (VMAT2 [2]; [6]) [µM] | Ki (hERG channel) [µM] | CLint scaled at 0.08 µM [3] [L/h/kg] | half-life at 0.08 µM [3] [h] | further results
CC(Cc1ccccc1)NCCOc1ccccc1 (centres unmarked) [Compound 19] | – | – | – | – | Ki (VMAT2 [1]): 4.1 ± 0.3 µM; Ki (VMAT2 [2]; [5]): 0.059 ± 0.007 µM
C[C@@H](Cc1ccccc1)NCCCc1ccccc1 [Compound 6] | – | – | – | – | Ki (VMAT2 [1]): 0.75 ± 0.14 µM; Ki (VMAT2 [2]; [5]): 0.065 ± 0.004 µM
COc1ccc(CCCNC(C)Cc2ccc(O)cc2)cc1 (centres unmarked) [Compound 36] | – | – | – | – | Ki (VMAT2 [1]): 0.23 ± 0.06 µM; Ki (VMAT2 [2]; [5]): 0.072 ± 0.03 µM
COc1ccc(CC(C)NCCCCc2ccccc2)cc1OC (centres unmarked) [Compound 47] | – | – | – | – | Ki (VMAT2 [1]): 1.1 ± 0.1 µM; Ki (VMAT2 [2]; [5]): 0.029 ± 0.011 µM
CC(Cc1ccc([N+](=O)[O-])cc1)NCCCc1ccccc1 (centres unmarked) [Compound 42] | – | – | – | – | Ki (VMAT2 [1]): 2 ± 0.3 µM; Ki (VMAT2 [2]; [5]): 0.013 ± 0.004 µM
CC(Cc1ccc(F)cc1)NCCCc1ccnc2ccccc12 (centres unmarked) [Compound 162] | 0.0305 ± 0.00859 | 2.95 ± 1.36 | 6.12 | 0.2 | –
CC(Cc1ccc(F)cc1)NCCCc1ccccc1 (centres unmarked) [Compound 126] | 0.0193 ± 0.00514 | 2.05 ± 0.773 | 0.69 | 1.8 | –
CC(Cc1ccccc1)NCCCc1ccc(Br)cc1 (centres unmarked) [Compound 218] | 0.0142 ± 0.00217 | 0.421 ± 0.0381 | 0.57 | 2.2 | –
CC(Cc1ccc(N)cc1)NCCCc1ccc(F)cc1 (centres unmarked) [Compound 109] | 0.0192 ± 0.00443 | 2.59 ± 0.792 | 1.51 | 0.8 | –
CC(Cc1ccccc1)NCCCc1ccncc1 (centres unmarked) [Compound 204] | 0.0491 ± 0.00351 | 8.46 ± 4.58 | 0.348 | 3.6 | –
CC(Cc1ccc(N)cc1)NCCCc1ccc(F)cc1 (centres unmarked) [Compound 112] | 0.0167 ± 0.00334 | 2.5 ± 0.435 | – | – | Microsomal stability assays: Clearance [3]: 1.41 L/h/kg; Microsomal stability assays: Half-life [3]: 0.9 h
CC(Cc1ccc(F)cc1)NCCCc1ccc(-c2ccnn2C)cc1 (centres unmarked) [Compound 166] | 0.0465 ± 0.00897 | 2.2 ± 0.251 | 2.06 | 0.6 | –
CC(Cc1ccc([N+](=O)[O-])cc1)NCCCc1ccccc1 (centres unmarked) [Compound 115] | 0.019 ± 0.00381 | 0.285 ± 0.0788 | < 0.312 | > 4 | –
CC(Cc1ccc(F)cc1)NCCCc1ccc(NC=O)cc1 (centres unmarked) [Compound 70] | 0.0225 ± 0.00448 | 2.6 ± 0.711 | 1.38 | 0.9 | –
CC(Cc1ccc(NC=O)cc1)NCCCc1ccc(F)cc1 (centres unmarked) [Compound 88] | 0.0127 ± 0.00285 | 0.738 ± 0.244 | 0.804 | 1.6 | –
CC(Cc1ccc(C(F)(F)F)cc1)NCCCc1ccncc1 (centres unmarked) [Compound 165] | 0.0532 ± 0.0065 | 1.89 ± 0.639 | < 0.312 | > 4 | –
CC(Cc1ccccc1)NCCCc1ccc(I)cc1 (centres unmarked) [Compound 214] | 0.00686 ± 0.00181 | 3.04 ± 1.37 | – | – | Microsomal stability assays: Clearance [3]: 1.06 L/h/kg; Microsomal stability assays: Half-life [3]: 1.2 h
CC(Cc1ccc(N)cc1)NCCCc1ccccc1 (centres unmarked) [Compound 105] | 0.0268 ± 0.00649 | 4.61 ± 1.01 | 1.78 | 0.7 | –
CC(Cc1ccncc1)NCCCc1ccc(Br)cc1 (centres unmarked) [Compound 168] | 0.041 ± 0.0111 | 1.78 ± 0.468 | 0.36 | 3.5 | –
CC(Cc1ccc([N+](=O)[O-])cc1)NCCCc1ccc(F)cc1 (centres unmarked) [Compound 120] | 0.00985 ± 0.00162 | 0.13 ± 0.0256 | – | – | Microsomal stability assays: Clearance [3]: <0.312 L/h/kg; Microsomal stability assays: Half-life [3]: >4 h

Structure (SMILES) | Ki (VMAT2 [2]; [6]) [µM] | Ki (hERG channel) [µM] | CLint scaled at 0.08 µM [3] [L/h/kg] | half-life at 0.08 µM [3] [h] | further results
CC(Cc1ccc(NC=O)cc1)NCCCc1ccc(F)cc1 (centres unmarked) [Compound 89] | 0.0127 ± 0.00285 | 0.738 ± 0.244 | – | – | Microsomal stability assays: Clearance [3]: 0.84 L/h/kg; Microsomal stability assays: Half-life [3]: 1.5 h
CC(Cc1ccc(F)cc1)NCCCc1ccc(Br)cc1 (centres unmarked) [Compound 146] | 0.0221 ± 0.0065 | 0.546 ± 0.199 | < 0.312 | > 4 | –
CC(Cc1ccccc1)NCCCc1ccc(-c2cccnc2)cc1 (centres unmarked) [Compound 210] | 0.0554 ± 0.00794 | 3.12 ± 0.251 | – | – | Microsomal stability assays: Half-life [4]: 6 min; CLint scaled at 0.08 µM [4]: 23.5 L/h/kg
CC(Cc1ccc([N+](=O)[O-])cc1)NCCCc1ccc(F)cc1 (centres unmarked) [Compound 117] | 0.00708 ± 0.00129 | 0.206 ± 0.137 | – | – | CLint scaled at 0.08 µM [4]: 8.88 L/h/kg; half-life at 0.08 µM [4]: 0.3 h
CC(Cc1ccc(-c2cccnc2)cc1)NCCCc1ccc(F)cc1 (centres unmarked) [Compound 192] | 0.0119 ± 0.00994 | 0.675 ± 0.127 | – | – | CLint scaled at 0.08 µM [4]: 4.63 L/h/kg; half-life at 0.08 µM [4]: 0.6 h
CC(Cc1ccccc1)NCCCc1ccc(I)cc1 (centres unmarked) [Compound 213] | 0.0222 ± 0.00221 | 0.642 ± 0.168 | – | – | Microsomal stability assays: Clearance [3]: <0.312 L/h/kg; Microsomal stability assays: Half-life [3]: >4 h
CC(Cc1ccc([N+](=O)[O-])cc1)NCCCc1ccc(F)cc1 (centres unmarked) [Compound 118] | 0.00708 ± 0.00129 | 0.206 ± 0.137 | < 0.312 | > 4 | –
CC(Cc1ccc(F)cc1)NCCCc1ccc(N)cc1 (centres unmarked) [Compound 94] | 0.0846 ± 0.0291 | 3.98 ± 3.41 | – | – | CLint scaled at 0.08 µM [4]: 7.14 L/h/kg; half-life at 0.08 µM [4]: 0.4 h
CC(Cc1ccc(-c2cncnc2)cc1)NCCCc1ccc(Cl)cc1 (centres unmarked) [Compound 170] | 0.00674 ± 0.00259 | 0.199 ± 0.0649 | – | – | CLint scaled at 0.08 µM [4]: 2.05 L/h/kg; half-life at 0.08 µM [4]: 1.4 h
CC(Cc1ccc(F)cc1)NCCCc1ccncc1 (centres unmarked) [Compound 176] | 0.0807 ± 0.021 | 3.77 ± 0.00204 | – | – | CLint scaled at 0.08 µM [4]: 4.31 L/h/kg; half-life at 0.08 µM [4]: 0.7 h
CC(Cc1ccccc1)NCCCc1ccc(N)cc1 (centres unmarked) [Compound 220] | 0.0404 ± 0.00472 | 5.34 ± 5.63 | – | – | CLint scaled at 0.08 µM [4]: 3.92 L/h/kg; half-life at 0.08 µM [4]: 0.7 h
CC(Cc1ccncc1)NCCCc1ccc(F)cc1 (centres unmarked) [Compound 186] | 0.0724 ± 0.0298 | 3.32 ± 1.93 | 0.258 | 4.8 | –
CC(Cc1ccc(F)cc1)NCCCc1ccc(F)cc1 (centres unmarked) [Compound 190] | 0.00828 ± 0.000736 | 0.789 ± 0.221 | 0.324 | 3.9 | –
CC(Cc1ccc(NC=O)cc1)NCCCc1ccccc1 (centres unmarked) [Compound 77] | 0.021 ± 0.0011 | 1.76 ± 0.63 | 0.672 | 1.9 | –
CC(=O)Nc1ccc(CCCNC(C)Cc2ccc(F)cc2)cc1 (centres unmarked) [Compound 66] | 0.0325 ± 0.00352 | 10.1 ± 3.35 | – | – | CLint scaled at 0.08 µM [4]: 1.84 L/h/kg; half-life at 0.08 µM [4]: 1.5 h
CC(Cc1ccncc1)NCCCc1ccc(O)cc1 (centres unmarked) [Compound 178] | 0.124 ± 0.0294 | 5.07 ± 0.0714 | – | – | CLint scaled at 0.08 µM [4]: 5.36 L/h/kg; half-life at 0.08 µM [4]: 0.5 h
CC(Cc1ccc([N+](=O)[O-])cc1)NCCCc1ccc(Br)cc1 (centres unmarked) [Compound 121] | 0.0134 ± 0.0048 | 0.08 ± 0.0677 | < 0.312 | > 4 | –
CC(Cc1ccc(F)cc1)NCCCc1ccc(Cl)cc1 (centres unmarked) [Compound 188] | 0.022 ± 0.00772 | 0.467 ± 0.28 | 0.282 | 4.4 | –
CC(Cc1ccc(Cl)cc1)NCCCc1ccc(N)cc1 (centres unmarked) [Compound 62] | 0.0316 ± 0.00466 | 2.38 ± 1.12 | – | – | CLint scaled at 0.08 µM [4]: 4.98 L/h/kg; half-life at 0.08 µM [4]: 0.6 h
